Measurements from patent US7241777B2, “Benzylimidazolyl substituted 2-quinoline and quinazoline derivatives for use as farnesyl transferase inhibitors” (Janssen Pharmaceutica N.V., priority 2002, dated 2007).
Like-named read-outs stand apart in the source and are kept apart here.

Tests used:
[1] = target: farnesyl protein transferase (Homo sapiens, UniProt P49354+P49356); assay: In vitro assay for inhibition of farnesyl protein transferase; type: biochemical; conditions: for IC50: negative log value of the IC50-value; for inhibition at 0.1 µM: read-out: % of inhibition at 10^−7 M
Method: “In Vitro Assay for Inhibition of Farnesyl Protein Transferase”
An in vitro assay for inhibition of farnesyl transferase was performed essentially as described in WO 98/40383pages 33–34.

[2] = read-out: Enzyme activity pIC50 (converted)

| IC50 [1, 2] [nM] | IC50 ([1]; read-out: pIC50 (converted)) [nM] | inhibition at 0.1 µM [1] [%] | melting point [°C] | SMILES |
| --- | --- | --- | --- | --- |
| 5.45 | 5.01 | 92 | 150 | Cn1c(=O)cc(-c2cccc(Cl)c2)c2cc(C(O)c3cncn3Cc3ccc(C#N)cc3)ccc21 (stereo not drawn) [Compound 3, 4-[[5-[[4-(3-chlorophenyl)-1,2-dihydro-1-methyl-2-oxo-6-quinolinyl]hydroxymethyl]-1H-imidazol-1-yl]methyl]-benzonitrile] |
| > 100 | – | 26 | 105 | O=C(c1ccc2c(c1)c(-c1cccc(Cl)c1)cc1nnnn12)c1cncn1Cc1ccc(Cl)cc1 [Compound 4] |
| > 100 | – | 32 | 140 | OC(c1ccc2c(c1)c(-c1cccc(Cl)c1)cc1nnnn12)c1cncn1Cc1ccc(Cl)cc1 (stereo not drawn) [Compound 5] |
| – | – | – | 192 | Cn1c(=O)cc(-c2cccc(Cl)c2)c2cc(C(=O)c3cncn3Cc3ccccc3)ccc21 [Compound 7] |
| – | – | – | 188 | Cn1c(=O)cc(-c2cccc(Cl)c2)c2cc(C(O)c3cncn3Cc3ccccc3)ccc21 (stereo not drawn) [Compound 8] |
| > 100 | – | 44 | – | Cn1c(=O)cc(-c2cccc(Cl)c2)c2cc(C(NC3CC3)c3cncn3Cc3ccccc3)ccc21 (stereo not drawn) [Compound 9] |
| > 100 | – | 43 | – | COC(c1ccc2c(c1)c(-c1cccc(Cl)c1)cc(=O)n2C)c1cncn1Cc1ccccc1 (stereo not drawn) [Compound 10] |
| > 100 | – | 49 | – | Cn1c(=O)cc(-c2cccc(Cl)c2)c2cc(C(N)c3cncn3Cc3ccccc3)ccc21 (stereo not drawn) [Compound 11] |
| > 100 | – | 47 | 102 | Cn1c(=O)cc(-c2cccc(Cl)c2)c2cc(C(c3cncn3Cc3ccccc3)n3ccnc3)ccc21 (stereo not drawn) [Compound 12] |
| < 100 | – | 65 | 210 | CC(=O)NC(c1ccc2c(c1)c(-c1cccc(Cl)c1)cc(=O)n2C)c1cncn1Cc1ccccc1 (stereo not drawn) [Compound 13] |
| – | 10.8 | 87 | – | N#Cc1ccc(Cn2cncc2C(O)c2ccc3c(c2)c(-c2cccc(Cl)c2)cc2nnnn23)cc1 (stereo not drawn) [Compound 14] |
| > 100 | – | 18 | – | O=C(c1ccc2c(c1)c(-c1cccc(Cl)c1)cc(=O)n2CC1CC1)c1cncn1Cc1ccc(Cl)cc1 [Compound 16] |
| > 100 | – | 33 | – | N#Cc1ccc(Cn2c(=O)cc(-c3cccc(Cl)c3)c3cc(C(=O)c4cncn4Cc4ccc(Cl)cc4)ccc32)cc1 [Compound 17] |
